For series [1], the system named is TNF-α. Description: TNF-α production in LPS-stimulated human whole blood (ELISA). In kind it is cell-based. The settings on record: LPS 4 hours, read-out: % TNF-α Inhibitory Activity in (hPBMC). On the procedure:
This assay determines the effect of the test compounds on the production of TNF-α in human whole blood. TNF-α assay is carried out as described by Armin Hatzelmann and Christian Schudt (J Pharm Exp Ther 297, 261, 2001). Compounds are tested for their ability to inhibit the activity of TNF-α in human whole blood. The test compounds are pre-incubated for 15 minutes at 37° C. and then stimulated with Lipopolysaccharide (Salmonella abortus equi, 1 µg/ml) for 4 hours at 37° C. in 5% CO2. The levels of TNF-α are estimated using Enzyme linked Immunosorbent assay performed in a 96 well format as per the procedure of the manufacturer (Cayman Chemical, Ann Arbor, USA).
For orientation: An ELISA detects its analyte on a solid surface through an enzyme-linked reagent.

For series [2], the system named is IL-6. The series can be described thus: IL-6 production in LPS-stimulated human whole blood (ELISA). In kind it is cell-based. As to conditions: LPS 4 hours, read-out: % IL-6 Inhibitory Activity (hPBMC). On the procedure: This assay determines the effect of test compounds on the production of IL-6 from human whole blood. Compounds are tested for their ability to downregulate the production of IL-6 in activated whole blood. The test compounds are pre-incubated for 15 minutes at 37° C. and then stimulated with Lipopolysaccharide (Salmonella abortus equi, 1 µg/ml) for 4 hours at 37° C. in 5% CO2. The levels of IL-6 are estimated using Enzyme linked Immunosorbent assay performed in a 96 well format as per the procedure of the manufacturer. (Cayman Chemical, Ann Arbor, USA).

The subject of series [3] is serum TNF-α production. The series can be described thus: In-vivo TNF-α inhibition assay (LPS-induced serum TNF-α in mice). As to conditions: male Swiss albino mice, oral, serum 90 minutes after LPS challenge. On the procedure:
TNF-α inhibitory activity is assessed by in-vivo inhibition of serum TNF-α production in mice. This method is used to assess the inhibitory actions of compounds, on TNF-[…] production in mouse (Griswold et al J Pharmacol Exp Ther 287,705, 1998, Garcia et al, Histol Histopathol 5(1), 43, 1990, and Victor et al, Physiol Res 52,789, 2003). Male Swiss albino mice with body weights equivalent within each group are selected. The animals are fasted for eighteen hours with free access to water. The control group receives only LPS and the drug treatment group receives LPS and the test compound. At the start of the experiment, the drug is administered orally. Thirty minutes later, the animals are given intraperitoneal injection with lipo-polysaccharide (LPS). Blood samples are withdrawn 90 minutes after the LPS challenge, which is the time point of maximal elevation of serum TNF-α activity. Blood was centrifuged for 10 minutes at 4° C. Serum samples were assayed for TNF-[…] levels using Mouse ELISA kit. The Percent Inhibition of TNF-α production is determined by comparison with LPS-treated and LPS/drug treated groups.

The target in series [4] is T1, COX-2 (Homo sapiens, UniProt P35354).
T1 sequence (P35354 18-604): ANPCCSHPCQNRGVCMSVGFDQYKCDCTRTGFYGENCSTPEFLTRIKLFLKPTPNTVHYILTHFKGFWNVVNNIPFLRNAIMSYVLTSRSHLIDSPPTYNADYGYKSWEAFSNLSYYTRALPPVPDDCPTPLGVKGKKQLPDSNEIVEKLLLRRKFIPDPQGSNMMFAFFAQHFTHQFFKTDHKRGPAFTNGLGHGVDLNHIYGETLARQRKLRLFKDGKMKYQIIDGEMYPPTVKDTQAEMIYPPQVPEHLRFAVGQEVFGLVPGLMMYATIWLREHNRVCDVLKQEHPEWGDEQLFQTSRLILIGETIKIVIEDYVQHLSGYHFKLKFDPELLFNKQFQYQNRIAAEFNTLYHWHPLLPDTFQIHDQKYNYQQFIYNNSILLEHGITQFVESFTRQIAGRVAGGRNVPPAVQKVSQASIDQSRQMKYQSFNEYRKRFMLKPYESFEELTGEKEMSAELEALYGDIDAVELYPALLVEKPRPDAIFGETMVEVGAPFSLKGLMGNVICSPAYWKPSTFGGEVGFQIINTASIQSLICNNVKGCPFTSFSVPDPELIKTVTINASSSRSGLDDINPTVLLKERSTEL
Description: COX-2 enzyme based assay (purified recombinant enzyme, prostaglandin EIA). It counts as biochemical. On the procedure: (§1) COX-1 and COX-2 enzyme based assays were carried out to check the inhibitory potential of test compounds on the production of prostaglandin by purified recombinant COX-1/COX-2 enzyme (Proc. Nat. Acad. Sci. USA, 88, 2692-2696, 1991; J. Clin. Immunoassay 15, 116-120, 1992) In this assay, the potential of the test compound to inhibit the production of prostaglandin's either by COX-1 or COX-2 from arachidonic acid (substrate) was measured. This was an enzyme based in-vitro assay to evaluate selective COX inhibition with good reproducibility.
(§2) Arachidonic acid was converted to PGH2 (Intermediate product) by COX1/COX-2 in the presence or absence of the test compound. The reaction was carried out at 37° C. and after 2 minutes it was stopped by adding 1M HCl. The intermediate product PGH2 was converted to a stable prostanoid product PGF2α by SnCl2 reduction. The amount of PGF2α produced in the reaction was inversely proportional to the COX inhibitory potential of the test compound. The prostanoid product was quantified via enzyme immunoassay (EIA) using a broadly specific antibody that binds to all the major forms of prostaglandin, using Cayman ELISA kit as per the procedure outlined by the manufacturer (Cayman Chemicals, Ann Arbor, USA).

Series [5] addresses COX-1 (Homo sapiens, UniProt P23219). Description: COX-1 enzyme based assay (purified recombinant enzyme, prostaglandin EIA). In kind it is biochemical. On the procedure:
as §1, §2

Sequence of COX-1 (P23219 24-599): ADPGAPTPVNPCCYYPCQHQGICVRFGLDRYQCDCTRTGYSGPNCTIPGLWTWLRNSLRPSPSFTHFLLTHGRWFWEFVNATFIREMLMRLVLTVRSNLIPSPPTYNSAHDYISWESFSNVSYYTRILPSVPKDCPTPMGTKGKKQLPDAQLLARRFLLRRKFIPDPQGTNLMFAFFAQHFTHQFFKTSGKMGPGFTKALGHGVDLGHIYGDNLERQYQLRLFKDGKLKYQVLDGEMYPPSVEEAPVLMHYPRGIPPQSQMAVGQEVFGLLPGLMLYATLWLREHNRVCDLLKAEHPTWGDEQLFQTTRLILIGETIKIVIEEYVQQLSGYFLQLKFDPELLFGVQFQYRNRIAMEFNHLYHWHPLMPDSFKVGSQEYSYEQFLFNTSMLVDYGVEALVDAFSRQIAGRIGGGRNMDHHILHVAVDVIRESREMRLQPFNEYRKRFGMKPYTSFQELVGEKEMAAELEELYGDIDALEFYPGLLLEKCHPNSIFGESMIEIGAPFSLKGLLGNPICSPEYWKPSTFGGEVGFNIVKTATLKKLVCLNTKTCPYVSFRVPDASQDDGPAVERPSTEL

What is called melting point is the temperature, or range, at which the solid turns liquid. `Cc1nccn1CC1CCc2c(c3ccccc3n2C)/C1=N/OC(=O)c1ccc(C#N)cc1` (stereo not drawn) [Example 44, (4E)-9-methyl-3-[(2-methyl-1H-imidazol-1-yl)methyl]-1,2,3,9-tetrahydro-4H-carbazol-4-one O-4-cyanobenzoyloxime]: the melting point lay within 178 to 180 °C. Moreover, in series [1], the inhibition at 1 µM is 23.5% and the inhibition at 10 µM was 45.6%. In series [2], the inhibition at 1 µM came to 13.2% and the inhibition at 10 µM was 22.7%.

The compound `Cc1nccn1CC1CCc2c(c3ccccc3n2C)/C1=N/OC(=O)c1ccccc1Cl` (stereo not drawn) [Example 37, (4E)-9-methyl-3-[(2-methyl-1H-imidazol-1-yl)methyl]-1,2,3,9-tetrahydro-4H-carbazol-4-one O-2-chlorobenzoyloxime] displayed a melting point of 111 to 116 °C. Also, in series [1], the inhibition at 1 µM is 14.5% and the inhibition at 10 µM is 42.1%. In series [2], the inhibition at 1 µM was 21.1% and the inhibition at 10 µM stood at 32.2%.

On to `Cc1nccn1CC1CCc2c(c3ccccc3n2C)/C1=N/Oc1ccc(Br)cn1` (stereo not drawn) [Example 17, (4E)-9-methyl-3-[(2-methyl-1H-imidazol-1-yl)methyl]-1,2,3,9-tetrahydro-4H-carbazol-4-one O-[5-bromo-pyridin-2-yl]oxime], for which the “% TNF-α inhibition in in vivo sepsis in mice” value in series [3] was 82.69%. In addition, in series [4], the inhibition at 1 µM was 41.5% and the inhibition at 10 µM was 42.7%.

On to `Cc1nccn1CC1CCc2c(c3ccccc3n2C)/C1=N/OC(=O)c1ccccc1Br` (stereo not drawn) [Example 39, (4E)-9-methyl-3-[(2-methyl-1H-imidazol-1-yl)methyl]-1,2,3,9-tetrahydro-4H-carbazol-4-one O-2-bromobenzoyloxime], for which the melting point was in the range of 108 to 112 °C. Further, in series [1], the inhibition at 1 µM came out at 26.1% and the inhibition at 10 µM came to 45.8%. Besides, in series [2], the inhibition at 1 µM was 28.5% and the inhibition at 10 µM was 19.1%.

For the compound `Cc1nccn1CC1CCc2c(c3ccccc3n2C)/C1=N/OC(=O)c1ccc(Br)s1` (stereo not drawn) [Example 62, (4E)-9-methyl-3-[(2-methyl-1H-imidazol-1-yl)methyl]-1,2,3,9-tetrahydro-4H-carbazol-4-one O-[(5-bromothien-2-yl)carbonyl]oxime], the “% TNF-α inhibition in in vivo sepsis in mice” value in series [3] worked out at 86.10%. Moreover, the inhibition at 10 µM in series [5] worked out at 16.4%. In series [4], the inhibition at 1 µM came out at 42% and the inhibition at 10 µM is 36.5%.

In the case of `Cc1nccn1CC1CCc2c(c3ccccc3n2C)/C1=N/Oc1ccc(C(F)(F)F)cn1` (stereo not drawn) [Example 21, (4E)-9-methyl-3-[(2-methyl-1H-imidazol-1-yl)methyl]-1,2,3,9-tetrahydro-4H-carbazol-4-one O-[5-trifluoromethyl-pyridin-2-yl]oxime], in series [4], the inhibition at 1 µM turned out to be 23% and the inhibition at 10 µM is 23.6%.

Regarding `COc1cc(O/N=C2/c3c(n(C)c4ccccc34)CCC2Cn2ccnc2C)nc(OC)n1` (stereo not drawn) [Example 20, (4E)-9-methyl-3-[(2-methyl-1H-imidazol-1-yl)methyl]-1,2,3,9-tetrahydro-4H-carbazol-4-one O-(2,6-dimethoxypyrimidin-4-yl)oxime], the inhibition at 10 µM in series [5] came out at 39.1%; in series [4] it was 34.9%. In addition, the inhibition at 1 µM in series [4] came out at 32.7%.

Compound `Cc1nccn1CC1CCc2c(c3ccccc3n2C)/C1=N/OC(=O)C1CCCCC1` (stereo not drawn) [Example 42, (4E)-9-methyl-3-[(2-methyl-1H-imidazol-1-yl)methyl]-1,2,3,9-tetrahydro-4H-carbazol-4-one O-cyclohexanoyloxime] displayed a melting point of 98 to 106 °C. Further, in series [2], the inhibition at 1 µM was determined as 7.96% and the inhibition at 10 µM was found to be 18.5%.

For the origin of these results see US20090170872A1, “Compounds and Their Pharmaceutical Use” (Orchid Research Laboratories Limited, priority 2005, published 2009).
